Measured values from patent US20060045953A1 (priority 2004, published 2006).

Target: T1, hT1R1/hT1R3 umami receptor (Homo sapiens, UniProt Q7RTX0+Q7RTX1)
T1 construct: expressed in transfected cells; host or cells: HEK293 derivative stably expressing Gα15, clone I-17, expression induced with mifepristone
T1 sequence (Q7RTX1 21-841): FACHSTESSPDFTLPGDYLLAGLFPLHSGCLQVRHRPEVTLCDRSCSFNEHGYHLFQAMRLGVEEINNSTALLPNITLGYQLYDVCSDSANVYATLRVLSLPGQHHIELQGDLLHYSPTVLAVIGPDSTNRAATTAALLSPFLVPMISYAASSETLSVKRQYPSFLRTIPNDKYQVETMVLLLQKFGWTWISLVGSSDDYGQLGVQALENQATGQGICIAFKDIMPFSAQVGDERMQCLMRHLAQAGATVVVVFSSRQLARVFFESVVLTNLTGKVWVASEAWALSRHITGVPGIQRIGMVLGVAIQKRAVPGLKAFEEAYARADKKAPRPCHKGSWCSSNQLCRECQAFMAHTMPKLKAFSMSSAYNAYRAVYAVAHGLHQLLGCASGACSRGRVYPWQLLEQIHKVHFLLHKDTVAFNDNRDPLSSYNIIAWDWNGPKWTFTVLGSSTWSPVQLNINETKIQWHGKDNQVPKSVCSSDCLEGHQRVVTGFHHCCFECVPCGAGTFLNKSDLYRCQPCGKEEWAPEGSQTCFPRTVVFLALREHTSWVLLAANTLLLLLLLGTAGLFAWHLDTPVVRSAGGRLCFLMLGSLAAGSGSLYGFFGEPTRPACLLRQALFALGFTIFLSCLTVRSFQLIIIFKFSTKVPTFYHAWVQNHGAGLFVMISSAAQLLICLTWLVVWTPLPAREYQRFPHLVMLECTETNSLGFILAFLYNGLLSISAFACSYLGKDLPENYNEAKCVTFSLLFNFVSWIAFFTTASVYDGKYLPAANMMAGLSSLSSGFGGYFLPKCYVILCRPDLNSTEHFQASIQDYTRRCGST
T1 sequence (Q7RTX0 21-852): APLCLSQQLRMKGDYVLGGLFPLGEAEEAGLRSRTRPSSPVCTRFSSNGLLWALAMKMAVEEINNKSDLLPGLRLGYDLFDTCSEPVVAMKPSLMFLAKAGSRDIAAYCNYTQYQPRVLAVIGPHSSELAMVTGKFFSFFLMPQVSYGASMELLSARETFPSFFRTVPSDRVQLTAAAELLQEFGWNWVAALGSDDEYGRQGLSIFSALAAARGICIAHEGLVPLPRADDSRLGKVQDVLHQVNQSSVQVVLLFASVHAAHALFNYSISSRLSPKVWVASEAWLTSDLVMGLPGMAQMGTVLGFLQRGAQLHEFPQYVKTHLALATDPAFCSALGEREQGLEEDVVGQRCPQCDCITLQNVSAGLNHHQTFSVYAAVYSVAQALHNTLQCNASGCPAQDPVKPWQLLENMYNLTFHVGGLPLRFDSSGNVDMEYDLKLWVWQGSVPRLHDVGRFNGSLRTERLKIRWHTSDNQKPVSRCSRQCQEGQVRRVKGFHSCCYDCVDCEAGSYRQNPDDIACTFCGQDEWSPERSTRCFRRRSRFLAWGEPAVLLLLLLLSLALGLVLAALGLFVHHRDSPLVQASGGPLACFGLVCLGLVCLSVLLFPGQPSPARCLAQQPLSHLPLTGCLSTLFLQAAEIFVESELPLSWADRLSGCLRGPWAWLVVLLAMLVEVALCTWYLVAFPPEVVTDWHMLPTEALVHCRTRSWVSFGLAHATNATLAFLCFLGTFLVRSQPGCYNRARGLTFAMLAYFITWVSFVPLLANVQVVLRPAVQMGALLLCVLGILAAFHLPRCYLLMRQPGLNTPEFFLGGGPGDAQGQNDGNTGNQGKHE
Experiment: In vitro hT1R1/hT1R3 umami taste receptor activation assay (FLIPR, dose response)
Assay type: cell-based
Settings: Table A, Umami Amides; read-out: Umami EC50

Row | EC50 [nM] | Structure (SMILES)
1 | 1580 | CCCOC(=O)[C@@H](CC(C)C)NC(=O)c1ccc2c(c1)OCO2 [Example A51, (R)-propyl 2-(benzo[d][1,3]dioxole-5-carboxamido)-4-methylpentanoate]
2 | 1830 | CCCC(CC)NC(=O)c1ccc2c(c1)OCO2 (centres unmarked) [Example A53, N-(hexan-3-yl)benzo[d][1,3]dioxole-5-carboxamide]
3 | 140 | CCCC(CC)NC(=O)c1ccc(C)c(C)c1 (centres unmarked) [Example A56, N-(hexan-3-yl)-3,4-imethylbenzamide]
4 | 250 | COC(=O)[C@@H](CC(C)C)NC(=O)c1ccc(OC)c(C)c1 [Example A63, (R)-methyl 2-(4-methoxy-3-methylbenzamido)-4-methylpentanoate]
5 | 260 | CCOc1ccc(C(=O)NC(CC)CC)cc1C [Example A64, 4-ethoxy-3-methyl-N-(pentan-3-yl)benzamide]
6 | 290 | COc1ccc(CNC(=O)c2ccncc2-n2cccc2)c(OC)c1 [Example A66, N-(2,4-dimethoxybenzyl)-3-(1H-pyrrol-1-yl)isonicotinamide]
7 | 320 | CCCC(CCC)NC(=O)c1ccc(OCC)cc1 [Example A68, 4-ethoxy-N-(heptan-4-yl)benzamide]
8 | 320 | COC(=O)[C@@H](CC(C)C)NC(=O)c1ccc(C)cc1 [Example A69, (R)-methyl 4-methyl-2-(4-methylbenzamido)pentanoate]
9 | 330 | CCCC(CCC)NC(=O)c1cccc(C(F)(F)F)c1 [Example A70, N-(heptan-4-yl)-3-(trifluoromethyl)benzamide]
10 | 340 | CCCC(CCC)NC(=O)c1ccc(CC)cc1 [Example A71, 4-ethyl-N-(heptan-4-yl)benzamide]
11 | 340 | COC(=O)[C@@H](CC(C)C)NC(=O)c1ccc(C)c(OC)c1 [Example A73, (R)-methyl 2-(3-methoxy-4-methylbenzamido)-4-methylpentanoate]
12 | 350 | CCCC(CCC)NC(=O)c1ccc(OC)c(F)c1 [Example A74, 3-fluoro-N-(heptan-4-yl)-4-methoxybenzamide]
13 | 400 | COc1ccc(C(=O)NC(C)CCc2ccccc2)cc1C (centres unmarked) [Example A76, 4-methoxy-3-methyl-N-(4-phenylbutan-2-yl)benzamide]
14 | 460 | CCCC(CCC)NC(=O)c1ccc(OC)cc1 [Example A79, N-(heptan-4-yl)-4-methoxybenzamide]
15 | 470 | CCCC(C)NC(=O)c1ccc(OC)c(Cl)c1 (centres unmarked) [Example A80, 3-chloro-4-methoxy-N-(pentan-2-yl)benzamide]
16 | 610 | CCCC(CCC)NC(=O)c1cccc(OC)c1 [Example A90, N-(heptan-4-yl)-3-methoxybenzamide]
17 | 650 | CCCC(CC(C)C)NC(=O)c1ccc(OCC)c(C)c1 (centres unmarked) [Example A92, 4-ethoxy-3-methyl-N-(2-methylheptan-4-yl)benzamide]

Second part, the molecule before the results:

Row | Structure (SMILES) | EC50 [nM]
18 | CC(CCc1ccccc1)NC(=O)c1ccc2c(c1)OCO2 (centres unmarked) [Example A48] | 1510
19 | CCCC(NC(=O)c1ccc2c(c1)OCO2)C(=O)OC (centres unmarked) [Example A49, 2-[(Benzo[1,3]dioxole-5-carbonyl)-amino]-pentanoic acid methyl ester] | 1540
20 | CCCC(CCC)C(=O)Nc1ccc2c(c1)OCO2 [Example A50, N-(benzo[d][1,3]dioxol-5-yl)-2-propylpentanamide] | 1570
21 | CCCC(CCC)NC(=O)c1ccc2c(c1)CCO2 [Example A52, N-(heptan-4-yl)-2,3-dihydrobenzofuran-5-carboxamide] | 1650
22 | CCCC(CC)NC(=O)c1ccc(SC)c(C)c1 (centres unmarked) [Example A54, N-(hexan-3-yl)-3-methyl-4-(methylthio)benzamide] | 120
23 | CCCCC(NC(=O)c1ccc(OC)c(Cl)c1)C(=O)OC (centres unmarked) [Example A55, methyl 2-(3-chloro-4-methoxybenzamido)hexanoate] | 120
24 | C=Cc1ccc(C(=O)N[C@H](CC(C)C)C(=O)OC)cc1 [Example A57, (R)-methyl 4-methyl-2-(4-vinylbenzamido)pentanoate] | 180
25 | CCC(NC(=O)c1ccc(OC)c(C)c1)C(C)C (centres unmarked) [Example A58, 4-methoxy-3-methyl-N-(2-methylpentan-3-yl)benzamide] | 200
26 | CCCC(NC(=O)c1ccc(OC)c(C)c1)C(C)C (centres unmarked) [Example A59, 4-methoxy-3-methyl-N-(2-methylhexan-3-yl)benzamide] | 200
27 | CCSc1ccc(C(=O)N[C@H](CC(C)C)C(=O)OC)cc1 [Example A60, (R)-methyl 2-(4-(ethylthio)benzamido)-4-methylpentanoate] | 200
28 | CCCC(CCC)NC(=O)c1ccc(OC)c(C)c1 [Example A61, N-(heptan-4-yl)-4-methoxy-3-methylbenzamide] | 220
29 | COC(=O)[C@H](NC(=O)c1ccc(C)c(C)c1)C(C)C [Example A62, (R)-methyl 2-(3,4-dimethylbenzamido)-3-methylbutanoate] | 250
30 | COC[C@@H](CC(C)C)NC(=O)c1ccc(SC)c(C)c1 [Example A65, (R)-N-(1-methoxy-4-methylpentan-2-yl)-3-methyl-4-(methylthio)benzamide] | 290
31 | CCOc1ccc(C(=O)NC(CC)CC(C)C)cc1C (centres unmarked) [Example A72, 4-ethoxy-3-methyl-N-(5-methylhexan-3-yl)benzamide] | 340
32 | CCCC(CCC)NC(=O)c1ccc(SC)cc1 [Example A75, N-(heptan-4-yl)-4-(methylthio)benzamide] | 390
33 | COc1ccc(C(=O)NC2CCCCC2C)cc1Cl (centres unmarked) [Example A77, 3-chloro-4-methoxy-N-(2-methylcyclohexyl)benzamide] | 440
34 | C=Cc1ccc(C(=O)NC(CCC)CCC)cc1 [Example A78, N-(heptan-4-yl)-4-vinylbenzamide] | 460
35 | CCCC(CC)NC(=O)c1ccc(C)c(SC)c1 (centres unmarked) [Example A81, N-(hexan-3-yl)-4-methyl-3-(methylthio)benzamide] | 500
36 | CCCOc1ccc(C(=O)N[C@H](CC(C)C)C(=O)OC)cc1 [Example A82, (R)-methyl 4-methyl-2-(4-propoxybenzamido)pentanoate] | 510
37 | CCCC(CCC)NC(=O)c1cccc(C)c1 [Example A83, (heptan-4-yl)-3-methylbenzamide] | 520
38 | CCCC(CCC)NC(=O)c1cccc(OC)c1O [Example A84, N-(heptan-4-yl)-2-hydroxy-3-methoxybenzamide] | 530
39 | COC(=O)[C@@H](CC(C)C)NC(=O)c1cc(C)cc(C)c1 [Example A85, (R)-methyl 2-(3,5-dimethylbenzamido)-4-methylpentanoate] | 530
40 | COc1cccc(C(=O)NC2CCCc3ccccc32)c1O (centres unmarked) [Example A87, 2-hydroxy-3-methoxy-N-(1,2,3,4-tetrahydronaphthalen-1-yl)benzamide] | 540
41 | CSc1ccc(C(=O)NC(C(C)C)C(C)C)cc1C [Example A88, N-(2,4-dimethylpentan-3-yl)-3-methyl-4-(methylthio)benzamide] | 550
42 | COc1ccc([C@@H](C)NC(=O)c2ccc(OC)c(Cl)c2)cc1 [Example A89, (R)-3-chloro-4-methoxy-N-(1-(4-methoxyphenyl)ethyl)benzamide] | 600
43 | CCCc1ccc(C(=O)N[C@H](CC(C)C)C(=O)OC)cc1 [Example A91, (R)-methyl 4-methyl-2-(4-propylbenzamido)pentanoate] | 620
44 | COc1cccc(C(=O)N[C@H]2CCCc3ccccc32)c1O [Example A93, (S)-2-hydroxy-3-methoxy-N-(1,2,3,4-tetrahydronaphthalen-1-yl)benzamide] | 700
